# Assays:
# Type in all cases: nucleic-acid assay
# Nucleic Acid [1] = experiment: Binding affinity to AAA TAT ATA GTG DNA sequence by fluorescence emission spectrum analysis
# Nucleic Acid [2] = experiment: Binding affinity to CGU AGA GUG RNA sequence assessed as melting temperature by thermal denaturation assay
# Nucleic Acid [3] = experiment: Binding affinity to CGT AAA GTG DNA sequence assessed as change in melting temperature by thermal denaturation assay
# Nucleic Acid [4] = experiment: Binding affinity to AAA UAU AUA GUG C RNA sequence by fluorescence emission spectrum analysis
# Nucleic Acid [5] = experiment: Binding affinity to CGT ATA GTG DNA sequence assessed as change in melting temperature by thermal denaturation assay
# Nucleic Acid [6] = experiment: Binding affinity to CGT AGA GTG DNA sequence assessed as melting temperature by thermal denaturation assay
# Nucleic Acid [7] = experiment: Binding affinity to CGU AGA GUG RNA sequence assessed as change in melting temperature by thermal denaturation assay
# Nucleic Acid [8] = experiment: Binding affinity to CGT ACA GTG DNA sequence assessed as change in melting temperature by thermal denaturation assay
# Nucleic Acid [9] = experiment: Binding affinity to CGT AGA GTG DNA sequence assessed as change in melting temperature by thermal denaturation assay
# Nucleic Acid [10] = experiment: Binding affinity to AAA TAT ATA GTG C DNA sequence assessed as melting temperature by thermal denaturation assay
# Nucleic Acid [11] = experiment: Binding affinity to AAA UAU AUA GUG C RNA sequence assessed as melting temperature by thermal denaturation assay
# Nucleic Acid [12] = experiment: Binding affinity to AAA TAT ATA GTG C DNA sequence assessed as change in melting temperature by thermal denaturation assay
# Nucleic Acid [13] = experiment: Binding affinity to AAA UAU AUA GUG C RNA sequence assessed as change in melting temperature by thermal denaturation assay
# Nucleic Acid [14] = experiment: Binding affinity to CGU ACA GUG RNA sequence assessed as change in melting temperature by thermal denaturation assay
# Nucleic Acid [15] = experiment: Binding affinity to CGU AUA GUG RNA sequence assessed as change in melting temperature by thermal denaturation assay
# Nucleic Acid [16] = experiment: Binding affinity to CGU AAA GUG RNA sequence assessed as change in melting temperature by thermal denaturation assay
SMILES,fold change (FC) (Nucleic Acid [1]),Tm (Nucleic Acid [2]) [°C],ΔTm (Nucleic Acid [3]) [°C],fold change (FC) (Nucleic Acid [4]),ΔTm (Nucleic Acid [5]) [°C],Tm (Nucleic Acid [6]) [°C],ΔTm (Nucleic Acid [7]) [°C],ΔTm (Nucleic Acid [8]) [°C],ΔTm (Nucleic Acid [9]) [°C],Tm (Nucleic Acid [10]) [°C],Tm (Nucleic Acid [11]) [°C],ΔTm (Nucleic Acid [12]) [°C],ΔTm (Nucleic Acid [13]) [°C],ΔTm (Nucleic Acid [14]) [°C],ΔTm (Nucleic Acid [15]) [°C],ΔTm (Nucleic Acid [16]) [°C]
Cc1cn([C@@H]2O[C@@]3(COP(=O)(O)O[C@H]4[C@@H](O)[C@H](n5cnc6c(=O)[nH]c(N)nc65)O[C@@H]4COP(=O)(O)O)CN(C(=O)c4ccc5ccc6cccc7ccc4c5c67)[C@@H]2[C@@H]3OP(=O)(O)OC[C@H]2O[C@@H](n3cnc4c(N)ncnc43)[C@H](O)[C@@H]2OP(=O)(O)OC[C@H]2O[C@@H](n3cc(C)c(=O)[nH]c3=O)C[C@@H]2OP(=O)(O)OC[C@@]23CN(C(=O)c4ccc5ccc6cccc7ccc4c5c67)[C@@H]([C@H](n4cc(C)c(N)nc4=O)O2)[C@@H]3OP(=O)(O)OC[C@H]2O[C@@H](n3cc(C)c(=O)[nH]c3=O)C[C@@H]2OP(=O)(O)OC[C@@]23CN(C(=O)c4ccc5ccc6cccc7ccc4c5c67)[C@@H]([C@H](n4cc(C)c(N)nc4=O)O2)[C@@H]3OP(=O)(O)OC[C@H]2O[C@@H](n3cnc4c(N)ncnc43)[C@H](O)[C@@H]2OP(=O)(O)OC[C@H]2O[C@@H](n3ccc(N)nc3=O)[C@H](O)[C@@H]2O)c(=O)nc1N,3.6,62,-27,3.6,-31.5,49.5,8.5,-31,5,,,,,,,
Cc1cn([C@@H]2O[C@@]3(COP(=O)(O)O[C@H]4C[C@H](n5cnc6c(N)ncnc65)O[C@@H]4COP(=O)(O)O[C@H]4C[C@H](n5cnc6c(=O)[nH]c(N)nc65)O[C@@H]4COP(=O)(O)O[C@H]4[C@H]5OC[C@]4(COP(=O)(O)O[C@H]4C[C@H](n6cnc7c(=O)[nH]c(N)nc76)O[C@@H]4CO)O[C@H]5n4cc(C)c(=O)[nH]c4=O)CO[C@@H]2[C@@H]3OP(=O)(O)OC[C@H]2O[C@@H](n3cnc4c(N)ncnc43)C[C@@H]2OP(=O)(O)OC[C@@]23CO[C@@H]([C@H](n4cc(C)c(=O)[nH]c4=O)O2)[C@@H]3OP(=O)(O)OC[C@H]2O[C@@H](n3cnc4c(=O)[nH]c(N)nc43)C[C@@H]2OP(=O)(O)OC[C@H]2O[C@@H](n3ccc(N)nc3=O)C[C@@H]2O)c(=O)[nH]c1=O,3.5,,,3.5,,,,,,45.5,46.5,6,7,,,
Cc1cn([C@@H]2O[C@@]3(COP(=O)(O)O[C@H]4C[C@H](n5cc(C)c(=O)[nH]c5=O)O[C@@H]4COP(=O)(O)O[C@H]4[C@@H]5[C@H](n6cc(C)c(N)nc6=O)O[C@@]4(COP(=O)(O)O[C@H]4C[C@H](n6cc(C)c(=O)[nH]c6=O)O[C@@H]4COP(=O)(O)O[C@H]4[C@@H](O)[C@H](n6cnc7c(N)ncnc76)O[C@@H]4COP(=O)(O)O[C@H]4[C@@H](O)[C@H](n6ccc(N)nc6=O)O[C@@H]4COP(=O)(O)O[C@H]4[C@@H](O)[C@H](n6cnc7c(=O)[nH]c(N)nc76)O[C@@H]4COP(=O)(O)O)CN5C(=O)c4ccc5ccc6cccc7ccc4c5c67)CN(C(=O)c4ccc5ccc6cccc7ccc4c5c67)[C@@H]2[C@@H]3OP(=O)(O)OC[C@H]2O[C@@H](n3cnc4c(N)ncnc43)[C@H](O)[C@@H]2OP(=O)(O)OC[C@H]2O[C@@H](n3ccc(N)nc3=O)[C@H](O)[C@@H]2O)c(=O)nc1N,3.6,52.5,-27,3.6,-30,43,8,-30,4.5,,,,,,,
Cc1cn([C@H]2C[C@H](OP(=O)(O)OC[C@H]3O[C@@H](n4ccc(N)nc4=O)[C@H](O)[C@@H]3OP(=O)(O)OC[C@H]3O[C@@H](n4cnc5c(N)ncnc54)[C@H](O)[C@@H]3OP(=O)(O)OC[C@H]3O[C@@H](n4ccc(N)nc4=O)[C@H](O)[C@@H]3O)[C@@H](COP(=O)(O)O[C@H]3[C@@H](O)[C@H](n4ccc(N)nc4=O)O[C@@H]3COP(=O)(O)O[C@H]3C[C@H](n4cc(C)c(=O)[nH]c4=O)O[C@@H]3COP(=O)(O)O[C@H]3[C@@H](O)[C@H](n4cnc5c(N)ncnc54)O[C@@H]3COP(=O)(O)O[C@H]3[C@@H](O)[C@H](n4ccc(N)nc4=O)O[C@@H]3COP(=O)(O)O[C@H]3[C@@H](O)[C@H](n4cnc5c(=O)[nH]c(N)nc54)O[C@@H]3COP(=O)(O)O)O2)c(=O)[nH]c1=O,,36.5,< -24.5,,-21.5,34.5,,< -24.5,,,,,,< -26.5,< -26.5,-23.5

# Other lines, results leading:
fold change (FC) (Nucleic Acid [1]),Tm (Nucleic Acid [2]) [°C],ΔTm (Nucleic Acid [3]) [°C],fold change (FC) (Nucleic Acid [4]),ΔTm (Nucleic Acid [5]) [°C],Tm (Nucleic Acid [6]) [°C],ΔTm (Nucleic Acid [7]) [°C],ΔTm (Nucleic Acid [8]) [°C],ΔTm (Nucleic Acid [9]) [°C],Tm (Nucleic Acid [10]) [°C],Tm (Nucleic Acid [11]) [°C],ΔTm (Nucleic Acid [12]) [°C],ΔTm (Nucleic Acid [13]) [°C],ΔTm (Nucleic Acid [14]) [°C],ΔTm (Nucleic Acid [15]) [°C],ΔTm (Nucleic Acid [16]) [°C],SMILES
3.6,47,-27,3.6,-32.5,45,5.5,-30,5.5,,,,,,,,Cc1cn([C@@H]2O[C@@]3(COP(=O)(O)O[C@H]4[C@@H](O)[C@H](n5cnc6c(=O)[nH]c(N)nc65)O[C@@H]4COP(=O)(O)O)CN(C(=O)c4ccc5ccc6cccc7ccc4c5c67)[C@@H]2[C@@H]3OP(=O)(O)OC[C@H]2O[C@@H](n3cnc4c(N)ncnc43)[C@H](O)[C@@H]2OP(=O)(O)OC[C@H]2O[C@@H](n3cc(C)c(=O)[nH]c3=O)C[C@@H]2OP(=O)(O)OC[C@@]23CN(C(=O)c4ccc5ccc6cccc7ccc4c5c67)[C@@H]([C@H](n4cc(C)c(N)nc4=O)O2)[C@@H]3OP(=O)(O)OC[C@H]2O[C@@H](n3cc(C)c(=O)[nH]c3=O)C[C@@H]2OP(=O)(O)OC[C@H]2O[C@@H](n3ccc(N)nc3=O)[C@H](O)[C@@H]2OP(=O)(O)OC[C@H]2O[C@@H](n3cnc4c(N)ncnc43)[C@H](O)[C@@H]2OP(=O)(O)OC[C@H]2O[C@@H](n3ccc(N)nc3=O)[C@H](O)[C@@H]2O)c(=O)nc1N
3.5,,,3.5,,,,,,46.5,48,6.5,8,,,,Cc1cn([C@@H]2O[C@@]3(COP(=O)(O)O[C@H]4[C@@H](O)[C@H](n5cnc6c(N)ncnc65)O[C@@H]4COP(=O)(O)O[C@H]4[C@@H]5[C@H](n6cc(C)c(=O)[nH]c6=O)O[C@@]4(COP(=O)(O)O[C@H]4C[C@H](n6cc(C)c(=O)[nH]c6=O)O[C@@H]4COP(=O)(O)O[C@H]4C[C@H](n6cc(C)c(=O)[nH]c6=O)O[C@@H]4COP(=O)(O)O)CN5C(=O)c4ccc5ccc6cccc7ccc4c5c67)CN(C(=O)c4ccc5ccc6cccc7ccc4c5c67)[C@@H]2[C@@H]3OP(=O)(O)OC[C@H]2O[C@@H](n3cnc4c(N)ncnc43)[C@H](O)[C@@H]2OP(=O)(O)OC[C@H]2O[C@@H](n3cc(C)c(=O)[nH]c3=O)C[C@@H]2OP(=O)(O)OC[C@H]2O[C@@H](n3cnc4c(N)ncnc43)[C@H](O)[C@@H]2OP(=O)(O)OC[C@H]2O[C@@H](n3cc(C)c(=O)[nH]c3=O)C[C@@H]2OP(=O)(O)OC[C@H]2O[C@@H](n3ccc(N)nc3=O)[C@H](O)[C@@H]2OP(=O)(O)OC[C@H]2O[C@@H](n3cnc4c(N)ncnc43)[C@H](O)[C@@H]2OP(=O)(O)OC[C@H]2O[C@@H](n3ccc(N)nc3=O)[C@H](O)[C@@H]2OP(=O)(O)OC[C@H]2O[C@@H](n3cnc4c(=O)[nH]c(N)nc43)[C@H](O)[C@@H]2O)c(=O)[nH]c1=O
,40,,,,37,3.5,,2.5,,,,,,,,Cc1cn([C@@H]2O[C@@]3(COP(=O)(O)O[C@H]4C[C@H](n5cc(C)c(=O)[nH]c5=O)O[C@@H]4COP(=O)(O)O[C@H]4[C@@H](O)[C@H](n5ccc(N)nc5=O)O[C@@H]4COP(=O)(O)O[C@H]4C[C@H](n5cc(C)c(=O)[nH]c5=O)O[C@@H]4COP(=O)(O)O[C@H]4[C@@H](O)[C@H](n5cnc6c(N)ncnc65)O[C@@H]4COP(=O)(O)O[C@H]4[C@@H](O)[C@H](n5ccc(N)nc5=O)O[C@@H]4COP(=O)(O)O[C@H]4[C@@H](O)[C@H](n5cnc6c(=O)[nH]c(N)nc65)O[C@@H]4COP(=O)(O)O)CN(C(=O)c4ccc5ccc6cccc7ccc4c5c67)[C@@H]2[C@@H]3OP(=O)(O)OC[C@H]2O[C@@H](n3cnc4c(N)ncnc43)[C@H](O)[C@@H]2OP(=O)(O)OC[C@H]2O[C@@H](n3ccc(N)nc3=O)[C@H](O)[C@@H]2O)c(=O)nc1N
